Legend:
[1] = system: CREB-S133; experiment: CREB phosphorylation in primary keratinocytes after solar simulated UV-irradiation (western blot); assay type: cell-based; conditions: 0.1, 1 and 5 μM added immediately after ssUV, FIG. 3A
Protocol: The influence of the polypeptide IK34720 (SEQ ID NO: 3) on CREB phosphorylation was assessed using the following protocol.
Keratinocytes were harvested and cultured as previously described (Gupta et al., J Invest Dermatol, 2007, 127(3):707-215). Keratinocytes, (passages 1-5) from 3 independent donors were used in the experiments illustrated in FIG. 3.
Positive control treatment (denoted “D” in FIG. 3) was prepared by solubilizing Calcitriol (1,25-dihydroxyvitamin D3 (1,25(OH)2D3)—Cayman Chemical, Mich., USA) in 100% spectroscopic ethanol (Merck, Darmstadt, Germany) and the final concentration was determined by spectroscopy (NanoDrop 2000, Thermo Fisher Scientific, Mass., USA). The polypeptide IK34720 (SEQ ID NO: 3) was solubilised in phosphate buffered saline (PBS) to a concentration of 1 mM at pH 7.2. A vehicle (denoted as “V” in FIG. 3) constituting 0.1% (v/v) spectroscopic ethanol and 0.1% (v/v) PBS was prepared for use as a negative control.
Cultured cells were irradiated by solar simulated UV-irradiation (ssUV) using an Oriel 1000W xenon-arc lamp (Stratford, Conn., USA). Irradiation was administered at an energy level of 400 mJ/cm^2 for UVB and 3600 mJ/cm^2 for UVA (total 4000 mJ/cm^2), measured by an OL754 radiometer (Optronics Laboratories Inc., Orlando, Fla.). This dosage equates to approximately 4 min irradiation of the sun at 12 noon in October in Sydney, Australia. […]

[2] = system: primary keratinocytes; experiment: ATP levels in primary keratinocytes exposed to ssUV (CellTiter-Glo 2.0 Assay); assay type: cell-based; conditions: 1.5 hours after UVR, FIG. 4
Protocol: The influence of the polypeptide IK34720 (SEQ ID NO: 3) on intracellular ATP following UV exposure was assessed using the following protocol.
Primary keratinocytes were harvested as described above in Example 2 and were either exposed to ssUV-irradiation (UVR), as described above in Example 2 or not irradiated (SHAM), in the presence or absence of Calcitriol (positive control) or polypeptide IK34720 (SEQ ID NO: 3; RSKAKNPLYRRRRRRRRR), at the concentrations described in Example 2.
ATP levels were determined 1.5 hours after UVR using the CellTiter-Glo® 2.0 Assay (Promega, Wis., USA) as described previously (Rybchyn et al., vide supra, 2017). All data in FIG. 4 is shown as mean±SD. *p<0.05, **p<0.01. Cells were prepared and irradiated as described above.

[3] = system: 8-OHdG formation in the skin; experiment: UV-induced oxidative stress (8-OHdG/8oxodG immunohistochemistry) in mouse skin; assay type: in vivo, Skh:hr1 hairless mice; conditions: topical immediately after 3 MED UVR; IK34720 20, 100 or 200 μg, Calcitriol 11.4 pmol/cm2; 3 h post-UVR; vs vehicle
Protocol: 8-hydroxy-2′-deoxyguanosine or 8-oxo-7,8-dihydro-2′-deoxyguanosine (8-OHdG/8-oxodG) is one of the predominant forms of free radical-induced in oxidative lesions with the concentrations of 8-OHdG within a cell being a measurement of oxidative stress. The role of the polypeptide IK34720 (SEQ ID NO: 3) in UV-induced oxidative stress was assessed using the following protocol.
Female Skh:hr1 hairless mice were exposed to solar simulated UV-irradiation (UVR) by exposure to one fluorescent UVB tube (Philips TL40W 12R/S, Eindhoven, The Netherlands) in combination with 6 UVA tubes (Hitachi 40W F40T 10/BL, Tokyo, Japan). The UVA and UVB irradiation was filtered through a 0.125 mm cellulose acetate sheet (Grafix Plastics, Cleveland, Ohio) as previously described (Dixon KM et al., Biochem Mol Biol, 2007, 103(3-5):451-6). […]
Biopsies were taken from UV-irradiated dorsal skin 3 h post-UVR and fixed in Histochoice fixative (Amresco, Solon Ohio) for 6 h. […] Sections were subjected to routine hematoxylin and eosin staining for visualization of sunburn cells at 40× magnification, and the number of sunburn cells per linear millimetre of skin section recorded.
Levels of 8-oxo-2′-deoxyguanosine (8oxodG) indicative of oxidative stress were detected by immunohistochemistry and image analysis (Dixon KM et al., Cancer Prey Res 2011, 4(9):1485-94) as set out below. […]

RSKAKNPLYRRRRRRRRR [IK34720, 18-residue polypeptide: … with a C-terminal polyarginine region of 8 arginines]
UV-induced phosphorylation of CREB S-133 [1]: inhibits UV-induced phosphorylation of serine at position 133 of CREB | ATP levels [2]: enhanced the ATP levels | 8-OHdG formation in the skin [3]: inhibits 8-OHdG formation

Source: patent US20220409510A1, “Polypeptides And Methods For Improving Skin Conditions” (Interk Peptide Therapeutics Limited, priority 2018, published 2022)
